Source: PubChem BioAssay AID248 (DTP/NCI, 2004)
Several values for one entry are separate records, joined by “and”; a condition that tells them apart may be missing. Identical values can stand only once. Inconclusive results and toxic doses are left out. Rule as the data show it: active = T/C of 150% or more; inactive = T/C below 125%.

Tested on: L1210 leukemia ip in BDF1 mice, survival T/C
Assay: NCI In Vivo Anticancer Drug Screen. Data for tumor model L1210 Leukemia (intraperitoneal) in B6D2F1 (BDF1) mice
Details: endpoint: mean survival time, higher = longer survival
Summary of the method: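 Tumor was transplanted into mice, which were then dosed with test compound or vehicle alone. Survival was recorded for each group, and the treated figure was expressed relative to the control figure.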

[1] = dose: 100.0 mg/kg/injection, schedule: Q01DX001 (ip), vehicle: Klucel (hydroxypropylcellulose) (HPC)
[2] = dose: 100.0 mg/kg/injection, schedule: Q04DX003 (ip), vehicle: Klucel (hydroxypropylcellulose) (HPC)
[3] = dose: 200.0 mg/kg/injection, schedule: Q01DX001 (ip), vehicle: Klucel (hydroxypropylcellulose) (HPC)
[4] = dose: 200.0 mg/kg/injection, schedule: Q04DX003 (ip), vehicle: Klucel (hydroxypropylcellulose) (HPC)
[5] = dose: 400.0 mg/kg/injection, schedule: Q01DX001 (ip), vehicle: Klucel (hydroxypropylcellulose) (HPC)
[6] = dose: 400.0 mg/kg/injection, schedule: Q04DX003 (ip), vehicle: Klucel (hydroxypropylcellulose) (HPC)
[7] = dose: 25.0 mg/kg/injection, schedule: Q04DX003 (ip), vehicle: Klucel (hydroxypropylcellulose) (HPC)
[8] = dose: 50.0 mg/kg/injection, schedule: Q04DX003 (ip), vehicle: Klucel (hydroxypropylcellulose) (HPC)
[9] = dose: 50.0 mg/kg/injection, schedule: Q01DX009 (ip), vehicle: Klucel (hydroxypropylcellulose) (HPC)
[10] = dose: 100.0 mg/kg/injection, schedule: Q01DX009 (ip), vehicle: Klucel (hydroxypropylcellulose) (HPC)
[11] = dose: 200.0 mg/kg/injection, schedule: Q01DX009 (ip), vehicle: Klucel (hydroxypropylcellulose) (HPC)
[12] = dose: 100.0 mg/kg/injection, schedule: Q01DX001 (ip), vehicle: saline
[13] = dose: 200.0 mg/kg/injection, schedule: Q01DX001 (ip), vehicle: saline
[14] = dose: 400.0 mg/kg/injection, schedule: Q01DX001 (ip), vehicle: saline
[15] = dose: 100.0 mg/kg/injection, schedule: Q04DX002 (ip), vehicle: saline with Tween-80
[16] = dose: 200.0 mg/kg/injection, schedule: Q04DX002 (ip), vehicle: saline with Tween-80
[17] = dose: 400.0 mg/kg/injection, schedule: Q04DX002 (ip), vehicle: saline with Tween-80
[18] = dose: 100.0 mg/kg/injection, schedule: Q04DX003 (ip), vehicle: saline
[19] = dose: 400.0 mg/kg/injection, schedule: Q04DX003 (ip), vehicle: saline
[20] = dose: 200.0 mg/kg/injection, schedule: Q04DX003 (ip), vehicle: saline
[21] = dose: 100.0 mg/kg/injection, schedule: Q01DX001 (ip), vehicle: saline with Tween-80
[22] = dose: 100.0 mg/kg/injection, schedule: Q04DX003 (ip), vehicle: saline with Tween-80
[23] = dose: 200.0 mg/kg/injection, schedule: Q01DX001 (ip), vehicle: saline with Tween-80
[24] = dose: 200.0 mg/kg/injection, schedule: Q04DX003 (ip), vehicle: saline with Tween-80
[25] = dose: 400.0 mg/kg/injection, schedule: Q01DX001 (ip), vehicle: saline with Tween-80
[26] = dose: 400.0 mg/kg/injection, schedule: Q04DX003 (ip), vehicle: saline with Tween-80

Measured: T/C

Cc1ccc(S(=O)(=O)C=C(c2ccccc2)c2ccccc2)cc1
inactive: [1] 98 % of control | [2] 100 % of control | [3] 96 % of control | [4] 95 % of control | [5] 104 % of control | [6] 95 % of control

CC(=O)CC(=O)C(F)(F)F.CC(=O)CC(=O)C(F)(F)F.[O]=[V]
inactive: [7] 100 % of control | [8] 107 % of control | [2] 96 % of control

CCCCNC(=O)c1cccc2c1-c1ccccc1C2=O
inactive: dose: 100.0 mg/kg/injection, schedule: Q01DX001 (ip), vehicle: other 88 % of control | dose: 200.0 mg/kg/injection, schedule: Q01DX001 (ip), vehicle: other 88 % of control | dose: 400.0 mg/kg/injection, schedule: Q01DX001 (ip), vehicle: other 96 % of control

Cc1cccc(CN2CCN(C(c3ccccc3)c3ccc(Cl)cc3)CC2)c1 (stereo not given)
inactive: dose: 25.0 mg/kg/injection, schedule: Q01DX009 (ip), vehicle: Klucel (hydroxypropylcellulose) (HPC) 100 % of control | [7] 100 % of control | [9] 100 % of control | [8] 110 % of control | [10] 94 % of control | [2] 105 % of control | [11] 87 % of control | [4] 118 % of control | [6] 89 % of control

CC(=O)Nc1cc(C(=O)Nc2cccc(C3=NCCN3)c2)ccc1C(=O)Nc1cccc(C2=NCCN2)c1
inactive: dose: 1.3 mg/kg/injection, schedule: Q01DX Z (ip), vehicle: methylcellulose (MC) 96 % of control

Nc1nc(Cc2cccc3ccccc23)nc(Cc2cccc3ccccc23)n1
inactive: [2] 87 % of control | [4] 92 % of control

CCCCCCCCCCC[As](=O)(O)CCCCCCCCCCC
inactive: dose: 50.0 mg/kg/injection, schedule: Q01DX001 (ip), vehicle: saline 103 % of control | [12] 97 % of control | [13] 103 % of control | [14] 101 % of control

CN(C)c1nc(N)c(N=O)c(N)n1
inactive: [15] 111 % of control | [16] 107 % of control | [17] 104 % of control

COC(=O)N1C2C=CC(=O)C(C=C2)N1C(=O)OC (stereo not given)
inactive: dose: 75.0 mg/kg/injection, schedule: Q01DX001 (ip), vehicle: saline 106 % of control | dose: 150.0 mg/kg/injection, schedule: Q01DX001 (ip), vehicle: saline 106 % of control | dose: 300.0 mg/kg/injection, schedule: Q01DX001 (ip), vehicle: saline 109 % of control

CCCCCCCCCCCCCCCCCCCCC(C(=O)O)S(=O)(=O)O (stereo not given)
inactive: [18] 95 % of control | [19] 96 % of control

C=C(C)C(=O)[O][Sn]([CH2]CCC)([CH2]CCC)[CH2]CCC
inactive: dose: 0.39 mg/kg/injection, schedule: Q01DX009 (ip), vehicle: saline 98 % of control | dose: 0.78 mg/kg/injection, schedule: Q01DX009 (ip), vehicle: saline 105 % of control | dose: 1.56 mg/kg/injection, schedule: Q01DX009 (ip), vehicle: saline 94 % of control | dose: 6.25 mg/kg/injection, schedule: Q01DX009 (ip), vehicle: saline 92 % of control

COC(=O)C(N)Cc1ccc(O)c(O)c1 (stereo not given)
inactive: dose: 100.0 mg/kg/injection, schedule: Q01DX009 (ip), vehicle: saline 110 % of control | [18] 102 % of control | dose: 200.0 mg/kg/injection, schedule: Q01DX009 (ip), vehicle: saline 112 % of control | [20] 98 % of control | dose: 400.0 mg/kg/injection, schedule: Q01DX009 (ip), vehicle: saline 112 % of control | [19] 102 % of control

CCCCCCCCCCCCCCCCS(=O)(=O)c1ccc(NN)cc1
inactive: [10] 89 % of control | [2] 97 % of control | [11] 91 % of control | [4] 98 % of control | dose: 400.0 mg/kg/injection, schedule: Q01DX009 (ip), vehicle: Klucel (hydroxypropylcellulose) (HPC) 90 % of control | [6] 105 % of control

COc1ccc(OC)c(NC(=O)c2ccc(Cl)c(Cl)c2)c1
inactive: [21] 106 % of control | dose: 100.0 mg/kg/injection, schedule: Q01DX009 (ip), vehicle: saline with Tween-80 93 % of control and 98 % of control | [15] 97 % of control and 99 % of control | [22] 105 % of control | [23] 101 % of control | dose: 200.0 mg/kg/injection, schedule: Q01DX009 (ip), vehicle: saline with Tween-80 97 % of control and 102 % of control | [16] 108 % of control and 89 % of control | [24] 108 % of control | [25] 108 % of control | dose: 400.0 mg/kg/injection, schedule: Q01DX009 (ip), vehicle: saline with Tween-80 111 % of control | [17] 104 % of control and 91 % of control | [26] 89 % of control

CSc1nc([N+](C)(C)C)cc([N+](C)(C)C)n1
inactive: dose: 6.0 mg/kg/injection, schedule: Q01DX Z (ip), vehicle: saline 91 % of control

Oc1c(Br)cc(Br)cc1C=Nc1ccccc1.Oc1c(Br)cc(Br)cc1C=Nc1ccccc1.[Co]
inactive: [18] 92 % of control | [20] 98 % of control | [19] 98 % of control

C=Cn1nnnc1N
inactive: [21] 100 % of control | [23] 93 % of control | [25] 98 % of control

CNc1ccc(/C=N/CCl)cc1
inactive: [22] 92 % of control | [24] 91 % of control | [26] 96 % of control

CNP(Br)(c1ccccc1)(c1ccccc1)c1ccccc1
inactive: dose: 10.0 mg/kg/injection, schedule: Q01DX001 (ip), vehicle: saline 101 % of control

O=C(NC1CCCCC1c1ccccc1)c1ccccc1 (stereo not given)
inactive: dose: 75.0 mg/kg/injection, schedule: Q01DX001 (ip), vehicle: carboxymethylcellulose (CMC) 97 % of control and 95 % of control | dose: 150.0 mg/kg/injection, schedule: Q01DX001 (ip), vehicle: carboxymethylcellulose (CMC) 97 % of control and 91 % of control | dose: 300.0 mg/kg/injection, schedule: Q01DX001 (ip), vehicle: carboxymethylcellulose (CMC) 94 % of control and 89 % of control

C[As](=O)(O)c1ccc(N)cc1
inactive: [7] 95 % of control | [8] 93 % of control | [2] 90 % of control and 92 % of control

C=CCOc1ccc(C=O)cc1OCC=C
inactive: [2] 101 % of control | [4] 96 % of control | [6] 101 % of control

COc1ccc(NC(C)=O)cc1
inactive: [1] 107 % of control | [3] 100 % of control | [5] 103 % of control

Nc1ncnc2n[nH]nc12
inactive: [9] 104 % of control | [10] 106 % of control

CC(=O)NCCCOc1ccc([N+](=O)[O-])cc1Cl
inactive: [1] 100 % of control | [10] 102 % of control | [2] 101 % of control | [3] 101 % of control | [11] 110 % of control and 112 % of control | [4] 113 % of control | [6] 103 % of control

CCOC(=O)CNC(=O)C=[N+]=[N-]
inactive: dose: 350.0 mg/kg/injection, schedule: Q01DX Z (ip), vehicle: water 116 % of control | dose: 500.0 mg/kg/injection, schedule: Q01DX Z (ip), vehicle: water 91 % of control

c1ccc2c(c1)NC(SSC1Nc3ccccc3S1)S2 (stereo not given)
inactive: [12] 94 % of control | [13] 88 % of control | [14] 94 % of control

CC(O)CN(c1ccccc1)c1ccccc1 (stereo not given)
inactive: dose: 100.0 mg/kg/injection, schedule: Q01DX001 (ip), vehicle: carboxymethylcellulose (CMC) 101 % of control | dose: 200.0 mg/kg/injection, schedule: Q01DX001 (ip), vehicle: carboxymethylcellulose (CMC) 92 % of control | dose: 400.0 mg/kg/injection, schedule: Q01DX001 (ip), vehicle: carboxymethylcellulose (CMC) 95 % of control

COC(=O)c1cn[nH]c1N1CC[N+](CCCl)=N1
inactive: dose: 25.0 mg/kg/injection, schedule: Q01DX009 (ip), vehicle: saline 97 % of control | dose: 25.0 mg/kg/injection, schedule: Q04DX003 (ip), vehicle: saline 102 % of control | dose: 50.0 mg/kg/injection, schedule: Q01DX009 (ip), vehicle: saline 106 % of control | dose: 50.0 mg/kg/injection, schedule: Q04DX003 (ip), vehicle: saline 104 % of control | [12] 100 % of control | [18] 104 % of control
